Results as given in paper PMC10454409, “Hybrids of Sterically Hindered Phenols and Diaryl Ureas: Synthesis, Switch from Antioxidant Activity to ROS Generation and Induction of Apoptosis” (International Journal of Molecular Sciences, 2023).
Read-outs that look alike come from different tables or passages of the source.

Key:
Assay type in all cases: cell-based
[1] = test system: M-HeLa cells (human cervix epithelioid carcinoma); test: MTT cytotoxicity test, M-HeLa
Method in brief: (§1)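 Cells seeded at 5 × 10^3 per well and grown at 37 °C to monolayer, then exposed to compounds for 48 h. Viability by MTT (0.5 mg/mL, serum-free medium, 4 h, 37 °C), formazan dissolved in DMSO, OD 540 nm. IC50 estimated from triplicate experiments.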

[2] = test system: SH-SY5Y cells (neuroblastoma); test: MTT cytotoxicity test, SH-SY5Y; conditions: Homo sapiens, SH-SY5Y; MTT test; 24 h incubation per text, 48 h per method
Method in brief: as §1

[3] = test system: SH-SY5Y neuroblastoma cells; test: Glycolysis stress test (Seahorse XF96e, ECAR); conditions: compound 100 µM
Experimental: We studied the ability of compounds to inhibit aerobic glycolysis using the Agilent Seahorse XF96e Analyzer (Seahorse Bioscience, North Billerica, MA, USA) assay of cellular metabolism on the level of proton production in samples examined on the SH-SY5Y neuroblastoma cell line using glycolysis stress tests. The extracellular acidification rate of the medium was measured in real time, which allowed us to assess the intensity of glycolysis in the cells by recording the main parameters of glycolytic function: basal glycolysis, glycolytic capacity and glycolytic reserve. Glycolytic capacity describes the maximum amount of glycolysis/glucose breakdown the cells can perform acutely, whereas glycolytic reserve is defined as the difference between the basal and maximal glycolytic capacity.
The ability of synthesized compounds to modulate […] glycolysis was studied using the Agilent Seahorse XF96e Analyzer (Seahorse Bioscience, Billerica, MA, USA) on the neuroblastoma SH-SY5Y cell line (40,000 cells per well) as described earlier.
Glycolysis was measured by subtracting the maximum rate of extracellular acidification of the medium before glucose injection from the maximum rate before oligomycin injection. Glycolytic capacity was measured by subtracting the maximum velocity value before glucose injection from the maximum velocity value after oligomycin injection. Glycolytic reserve was defined as the difference between glycolytic capacity and glycolysis.
Figure 6 Effect of synthesized compounds on the glycolytic profile of (a–c) SH-SY5Y tumor cells and (d) calculated parameters of glycolytic function. […] The concentration of compounds was 100 µM, glucose—10 mM, oligomycin—1 µM и 2-fluoro-2-deoxy-D-glucose—25 mM. Data are presented as mean±error of the mean (n = 3). Statistical significance was assessed using one-way ANOVA and Dunnett’s multiple comparison tests, where **** p < 0.0001, *** p < 0.001, ** p < 0.01 and * p < 0.05 vs. control.

[4] = test system: HuTu 80 cells (human duodenal adenocarcinoma); test: MTT cytotoxicity test, HuTu 80
Method in brief: as §1

[5] = test system: Chang liver cells (human liver cells, normal cell line); test: MTT cytotoxicity test, Chang liver normal cells; conditions: 48 h incubation
Excerpt: For the experiments, we used tumor cell cultures M-HeLa clone 11 (epithelioid carcinoma of the cervix, subline HeLa., clone M-HeLa), HuTu 80 (human duodenal adenocarcinoma) and MCF7 (human breast adenocarcinoma (pleural fluid)) from the collection of the Institute of Cytology, Russian Academy of Sciences (St. Petersburg); human liver cells (Chang liver) from the collection of the Research Institute of Virology at the Russian Academy of Medical Sciences (Moscow); and SH-SY5Y (neuroblastoma)from the Laboratory of Tumor Cell Genetics at the Scientific Research Institute of Carcinogenesis N.N. Blokhin National Medical Research Center of Oncology.
The cytotoxic effect on cells was determined using the colorimetric method of cell proliferation—the MTT test. NADP-H-dependent cellular oxidoreductase enzymes can, under certain conditions, reflect the number of viable cells. These enzymes are able to reduce the tetrazolium dye (MTT)-3-(4,5-dimethylthiazol-2-yl)-2,5-diphenyl-tetrazolium bromide to insoluble blue-violet formazan, which crystallizes inside the cell. The amount of formazan formed is proportional to the number of cells with active metabolism.
Cells were seeded on a 96-well Nunc plate at a concentration of 5 × 10^3 cells per well in a volume of 100 μL of medium and cultured in a CO2 incubator at 37 °C until a monolayer was formed. […] After 48 h, the nutrient medium was removed from the plates and 100 µL of the nutrient medium without serum with MTT at a concentration of 0.5 mg/mL was added and incubated for 4 h at 37 °C. Formazan crystals were […] 100 µL of DMSO in each well. Optical density was recorded at 540 nm on an in vitro logic microplate reader (Russia). The experiments for all compounds were repeated in triplicate.
IC50 values were estimated using the Quest Graph IC50 Calculator (AAT Bioquest, Inc., Sunnyvale, CA, USA) (Version 2022) (accessed on 25 June 2022).

**Q.** How did the IC50 ([1]; Homo sapiens, M-HeLa, MTT test, 24 h incubation per text, 48 h per method) turn out when CCOP(=O)(OCC)C(c1cc(C(C)(C)C)c(O)c(C(C)(C)C)c1)c1ccc(NC(=O)Nc2ccc([N+](=O)[O-])cc2)cc1NC(=O)Nc1ccc([N+](=O)[O-])cc1 (stereo not drawn) [17b] was run?
**A.** 24.3 ± 1.9 µM

**Q.** What about the “SI, selectivity index relative to Chang liver, M-HeLa” value ([1]; M-HeLa vs Chang liver) of the same molecule?
**A.** ~3

**Q.** And the IC50 [2]?
**A.** 54.8 ± 2.1 µM

**Q.** And the Glycolytic reserve [3]?
**A.** ability to decrease glycolytic reserves

**Q.** What about the “Glycolysis: rate of extracellular acidification after saturating glucose” value ([3]; glucose 10 mM) of the same molecule?
**A.** decrease in the rate of extracellular acidification

**Q.** And the Glycolytic capacity ([3]; oligomycin 1 µM)?
**A.** decrease in glycolytic capacity

**Q.** What about the IC50 ([4]; Homo sapiens, HuTu80, read-out: IC50, HuTu 80) of the same molecule?
**A.** < 15 µM

**Q.** What about the IC50 ([4]; read-out: IC50, HuTu 80) of the same molecule?
**A.** 13.2 µM

**Q.** What about the IC50 [5] of the same molecule?
**A.** 74 ± 5.9 µM
